Results taken from PubChem BioAssay AID623904 (Broad Institute, 2012).
“And” between values parts separate entries of the source, which are not always exact repeats. Identical values can stand only once. The source made the active and inactive calls.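 The calls were made as follows: active = growth inhibition with an AC50 at or below twice the top valid tested dose; inconclusive = flat curve at 30 to 70% inhibition, or poor fit; inactive = the rest, including growth increase.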

Test system: Candida glabrata growth, glucose medium, OD600, 48 h
Assay: antifungal activity against fermenting C. glabrata – glucose medium, OD600, powder samples, set 2, dose response (AID 623904)
Conditions: not given

SMILES	AC50
Cc1ccc(N2C(=O)C3(CCCCC3)NC2=S)cc1	> 12 µM (inactive)
CCOC(=O)N1C(=O)C2(CCCCC2)N(c2ccc(C#N)cc2)C1=S	3.29 µM
CCOC(=O)N1C(=S)N(c2ccc(C)cc2)C2(CCCCC2)C1=NCc1ccccc1	> 12 µM (inactive)
CCOC(=O)N1C(=S)NC(=O)C12CCCCC2	> 12 µM (inactive)
CCOC(=O)N1C(=O)C2(CCCCC2)N(c2ccc(F)cc2)C1=S	2.34 µM
CCCC(=O)N1C(=O)C2(CCCCC2)N(c2ccc(C)cc2)C1=S	1.48 µM
CCOC(=O)N1C(=O)C2(CCCCC2)N(c2ccc(C)cc2)C1=S	1.85 µM and 2.09 µM
Cc1ccc(N2C(=S)N(S(C)(=O)=O)C(=O)C23CCCCC3)cc1	> 12 µM (inactive)
CCOC(=O)N1C(=O)C2(CCCCC2)N(c2ccc(C(F)(F)F)cc2)C1=S	4.15 µM
Cc1ccc(N2C(=O)N(C)C(=O)C23CCCCC3)cc1	> 12 µM (inactive)
CCOC(=O)N1C(=O)C2(CCCCC2)NC1=S	> 12 µM (inactive)
CCOC(=O)N1C(=O)C2(CCCCC2)N(c2cccc(C)c2)C1=S	2.34 µM
CCOC(=O)N1C(=O)C2(CCOCC2)N(c2ccc(C)cc2)C1=S	> 12 µM (inactive)
COC(=O)N1C(=O)C2(CCCCC2)N(c2ccc(C)cc2)C1=S	5.93 µM
CCOC(=O)N1C(=O)C2(CCC2)N(c2ccc(C)cc2)C1=S	> 12 µM (inactive)
CC1/C=C/C=C\C=C\C=C\C=C\C=C\C=C\C(O[C@H]2OC(C)C(O)C(N)C2O)CC2OC(O)(CC(O)CC(O)C(O)CCC(O)CC(O)CC(=O)OC(C)C(C)C1O)CC(O)C2C(=O)O (stereo partly drawn)	0.206 µM
Cc1ccc(N2C(=O)NC(=O)C23CCCCC3)cc1	> 12 µM (inactive)
CCOC(=O)N1C(=O)C2(CCCC2)N(c2ccc(C)cc2)C1=S	> 12 µM (inactive)
CCOC(=O)N1C(=O)C2(CCCCC2)N(c2ccccc2)C1=S	2.04 µM
Cc1ccc(N2C(=O)C(=O)NC2=S)cc1	> 12 µM (inactive)
CCOC(=O)N1C(=S)N(c2ccc(C)cc2)C(=O)C12CCCCC2	> 12 µM (inactive)

Test system: not listed separately
Assay: as above
Conditions: Candida glabrata growth, glucose medium, OD600, 48 h; at 6 µM (top of the series)

SMILES	activity change, negative = inhibition
Cc1ccc(N2CC(=O)NC2=S)cc1	2.6% (inactive)
Cc1ccc(N2C(=S)N(C(=O)Oc3ccccc3)C(=O)C23CCCCC3)cc1	2.19% (inactive)
Cc1ccc(N2C(=S)NC(=O)C23CCCCC3)cc1	-5.97% (inactive)
CC(C)N1C(=S)NC(=O)C12CCCCC2	-10.3% (inactive)
O=C1NC(=S)N(c2ccc(F)cc2)C12CCCCC2	11% (inactive)
CCOC(=O)N1C(=O)C2(CCCCC2)N(C(C)C)C1=S	10.8% (inactive)
Cc1ccc(N2CC(=O)NC2=O)cc1	9.85% (inactive)
CCOC(=O)N1C(=O)N(c2ccc(C)cc2)C2(CCCCC2)C1=O	-17.3% (inactive)
O=C1NC(=S)N(c2ccccc2)C12CCCCC2	5.48% (inactive)
Cc1ccc(N2C(=S)NC(=O)C23CCOCC3)cc1	-7.64% (inactive)
CCOC(=O)N1C(=O)C(C)(C)N(c2ccc(C)cc2)C1=S	-7.97% (inactive)
Cc1ccc(N2C(=S)NC(=O)C2(C)C)cc1	46.6% (inactive)
CCOC(=O)N1C(=O)C2(CCCCC2)N(c2ccc(C(C)(C)C)cc2)C1=S	-18.2% (inactive)
CCCCN1C(=O)N(c2ccc(C)cc2)C2(CCCCC2)C1=S	-6.75% (inactive)
CCOC(=O)N1C(=O)C2(CCCCC2)N(c2ccc(-c3ccccc3)cc2)C1=S	-30.1% (inactive)
Cc1ccc(N2C(=S)NC(=O)C23CCCC3)cc1	-25.3% (inactive)
CCCCN1C(=O)C2(CCCCC2)N(c2ccc(C)cc2)C1=S	5.19% (inactive)
Cc1ccc(N2C(=S)N(C(=O)OCc3ccccc3)C(=O)C23CCCCC3)cc1	5.73% (inactive)
Cc1ccc(N2C(=S)N(C)C(=O)C23CCCCC3)cc1	2.67% (inactive) and 7.65% (inactive)
O=C1NC(=S)NC12CCCCC2	-24.5% (inactive)
Cc1ccc(N2C(=S)NC(=O)C23CCC3)cc1	9.11% (inactive)
CCCCN1C(=O)N(c2ccc(C)cc2)C2(CCCCC2)C1=O	-27.1% (inactive)
